Data on two molecules can be found in patent US4689218A, “Effervescent composition with analgesic activity” (priority 1985, dated 1987).

“Also recorded” adds a separate entry of the source.

Series [1] can be described thus: Stability (degradation, colour) of lysine-containing preparation. Particulars: larger amounts of lysine (more than 30-40% of arginine substituted). Type of series: physicochemical.
The conditions of series [2]: oral route, tablet; cited from earlier work.
The next series concerns oral and gastric mucosa. The note with it: oral administration (b7), mucosa of the mouth, aqueous suspension (b9); cited from earlier work.
The conditions of series [3]: cited from earlier work.

In the case of `NCCCC[C@H](N)C(=O)O` [lysine], the “Degradation / brown colour of the pharmaceutical preparation” value in series [1] is recorded as “easily degrades making of a brown colour the pharmaceutical preparation”.

For the molecule `CC(C)Cc1ccc(C(C)C(=O)O)cc1` (stereo not shown) [Ibuprofen, 2-(4-isobutyl-phenyl)-propionic acid], the Kinetics of absorption result in series [2] is recorded as “relatively slow kinetics of absorption”. The Irritability of mucosa result with oral and gastric mucosa is listed as “some irritability of gastric mucosa; also recorded: irritant for the mucosa of the mouth”. In addition, the Solubility in water entry in series [3] is listed as “very low solubility in water”.
